Values quoted from earlier work in patent US20260301880A1, “NOSE-TO-BRAIN PHYSIOLOGICALLY BASED PHARMACOKINETIC MODEL” (APTARGROUP INC., priority 2023, published 2026).

Assays:
[1] = humans
[2] = octanol/water
[3] = not given; remark: listed apart in the source
[4] = literature value, porcine nasal mucosa
[5] = healthy volunteers
[6] = clinical
[7] = not given; remark: listed apart in the source

## CC(=O)Nc1ccc(O)cc1 [paracetamol]
[1]
  PbAb - Permeability-surface area product between brain blood and brain mass: 1.875 L/h

## CN1C[C@H](C(=O)N[C@]2(C)O[C@@]3(O)[C@@H]4CCCN4C(=O)[C@H](Cc4ccccc4)N3C2=O)C[C@@H]2c3cccc4[nH]cc(c34)C[C@H]21 [DHE, dihydroergotamine]
other
  fu - fraction unbound in blood plasma: 0.03
[2]
  LogP: 2
[3]; acid
  pKa (acid): 9.71
[3]; base
  pKa (base): 8.39
[4]
  P - Permeability in the nasal epithelium: 1.48 × 10^−7

## CNS(=O)(=O)Cc1ccc2[nH]cc(CCN(C)C)c2c1 [sumatriptan]
[5]
  oral bioavailability: low
other
  fu - fraction unbound in blood plasma: 0.63
[6]
  reported nasal bioavailability: 16%
[7]
  R - Blood/plasma ratio: 1
